Test results: US6887896B1, “7-[(7-Alkoxy)-chrom-3-en-6-yl]-heptatrienoic acid and 7-[(3-alkoxy)-5,6-dihydronaphthalen-2-yl]-heptatrienoic acid derivatives having serum glucose reducing activity” (Allergan, Inc., priority 2003, dated 2005)

Assays:
RARβ = molecular target: T1, RARβ (Homo sapiens, UniProt P10826); assay: ligand binding assay, RARβ; settings: read-out: RAR Bind. Ki β
T1 sequence (P10826 1-455): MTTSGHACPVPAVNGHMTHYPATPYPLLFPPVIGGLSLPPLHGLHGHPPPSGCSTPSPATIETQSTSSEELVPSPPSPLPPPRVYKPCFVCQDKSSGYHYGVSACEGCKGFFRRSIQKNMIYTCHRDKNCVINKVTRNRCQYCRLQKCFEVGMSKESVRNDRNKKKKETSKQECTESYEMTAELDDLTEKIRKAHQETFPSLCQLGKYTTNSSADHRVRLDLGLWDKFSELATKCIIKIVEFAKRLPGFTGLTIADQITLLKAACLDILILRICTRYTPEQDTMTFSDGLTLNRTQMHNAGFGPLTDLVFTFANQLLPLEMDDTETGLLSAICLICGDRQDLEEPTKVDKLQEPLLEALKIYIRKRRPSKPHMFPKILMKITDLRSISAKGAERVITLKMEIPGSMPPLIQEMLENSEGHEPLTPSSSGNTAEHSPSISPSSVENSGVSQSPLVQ
Text: (§1) Specifically, one such assay is a chimeric receptor transactivation assay which tests for agonist-like activity in the R RAPE and RAR7 receptor subtypes, and which is based on work published by Feigner, P. L. and Holm, M (1989) Focus, 112 is described in detail in U.S. Pat. No. 5,455,265. The specification of U.S. Pat. No. 5,455,265 is hereby expressly incorporated by reference. A holoreceptor transactivation assay and a ligand binding assay which measure the antagonist/agonist like activity of the compounds of the invention, or their ability to bind to the several retinoid receptor subtypes, respectively, are described in published PCT Application No. WO WO93/11755 (particularly on pages 30-33 and 37-41) published on Jun. 24, 1993, the specification of which is also incorporated herein by reference. A detailed experimental procedure for holoreceptor transactivations has been described by Heyman et al. Cell 68, 397-406, (1992); Allegretto et al. J. Biol. Chem. 268, 26625-26633, and Mangelsdorf et al. The Retinoids: Biology, Chemistry and Medicine, pp 319-349, Raven Press Ltd., New York, which are expressly incorporated herein by reference. The results obtained in this assay are expressed in EC50 numbers, as they are also in the chimeric receptor transactivation assay. The results of the ligand binding assay are expressed in Ki numbers. (See Cheng et al. Biochemical Pharmacology Vol. 22 pp 3099-3108, expressly incorporated herein by reference.)
(§2) Generally speaking, in the tables disclosing the results of transactivation and binding assays the numbers in parentheses indicate efficacy as a percentage compared to the standard compound, (2E,4E,1′S,2′S)-3-methyl-5-[2′-methyl-2′-(5,5,8,8-tetramethyl-5,6,7,8-tetrahydro-naphthalen-2-yl)cyclopropyl]-penta-2,4-dienoic acid and the other numbers indicate the measured EC50 and K; in nanomolar concentration.

RXRα = molecular target: T2, RXRα (Homo sapiens, UniProt P19793); assay: holoreceptor transactivation assay, RXRα; assay type: cell-based; settings: for EC50: holoreceptor transactivation, read-out: RXR Trans. EC50 α; for Emax: percentage compared to the standard compound, read-out: RXR Trans. efficacy (number in parentheses) α
T2 construct: expressed in transfected cells
T2 sequence (P19793 1-462): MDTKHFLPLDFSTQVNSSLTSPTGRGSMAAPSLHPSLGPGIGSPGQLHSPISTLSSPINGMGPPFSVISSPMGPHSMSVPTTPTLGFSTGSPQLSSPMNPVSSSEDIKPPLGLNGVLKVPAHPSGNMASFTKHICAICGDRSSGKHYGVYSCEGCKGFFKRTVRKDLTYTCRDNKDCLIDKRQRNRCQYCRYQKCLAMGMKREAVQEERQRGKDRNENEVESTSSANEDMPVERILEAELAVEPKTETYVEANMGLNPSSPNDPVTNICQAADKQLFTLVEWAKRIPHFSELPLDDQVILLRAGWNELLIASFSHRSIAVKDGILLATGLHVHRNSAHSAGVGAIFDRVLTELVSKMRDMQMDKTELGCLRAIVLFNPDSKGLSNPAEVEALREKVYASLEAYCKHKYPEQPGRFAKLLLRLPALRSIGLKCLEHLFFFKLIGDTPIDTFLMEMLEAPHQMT
Text: as §1
Efficacy in a transactivation assay is expressed as a percentage of the maximum potency attained by the compound compared to a standard which, in this case, is the compound named (2E,4E,1′S,2′S)-3-methyl-5-[2′-methyl-2′-(5,5,8,8-tetramethyl-5,6,7,8-tetrahydro-naphthalen-2-yl)-cyclopropyl]-penta-2,4-dienoic acid. This standard compound is described in U.S. Pat. No. 6,114,533.
The specification of this application for patent is organized in several sections in accordance with structural Formulas A through F each of which discloses a group of preferred compounds within the scope of the invention. Tables that disclose the activity of certain exemplary compounds of the invention in the above-described RXR receptor transactivation and binding assays are found in the corresponding sections. […] The transactivation data pertaining to the activation of RXR receptors were obtained in the holoreceptor assay.
as §2

RARγ = molecular target: T3, RARγ (Homo sapiens, UniProt P13631); assay: ligand binding assay, RARγ; settings: read-out: RAR Bind. Ki γ
T3 sequence (P13631 1-454): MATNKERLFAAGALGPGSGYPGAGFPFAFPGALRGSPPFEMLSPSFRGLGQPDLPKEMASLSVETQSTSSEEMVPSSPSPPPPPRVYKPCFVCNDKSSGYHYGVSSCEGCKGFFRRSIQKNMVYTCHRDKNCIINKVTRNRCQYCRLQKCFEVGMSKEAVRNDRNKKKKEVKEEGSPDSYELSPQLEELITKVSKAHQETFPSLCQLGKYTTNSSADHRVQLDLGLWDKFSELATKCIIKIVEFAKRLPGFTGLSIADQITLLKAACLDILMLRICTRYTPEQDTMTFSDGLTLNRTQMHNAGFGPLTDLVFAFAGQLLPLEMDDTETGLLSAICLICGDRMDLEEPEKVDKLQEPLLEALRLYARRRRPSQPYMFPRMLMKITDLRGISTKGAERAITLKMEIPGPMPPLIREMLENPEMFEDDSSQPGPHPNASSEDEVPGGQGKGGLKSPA
Text: as §1, §2

Ki (RARβ)	EC50 (RXRα)	Emax (RXRα)	Ki (RARγ)	SMILES
359 nM	3 nM	62%	1200 nM	CCOc1cc2c(cc1\C(C)=C(F)/C=C/C(C)=C/C(=O)O)C(C)=CCC2(C)C
9900 nM	6 nM	99%	> 10000 nM	CCC1=CC(C)(C)Oc2cc(OC)c(\C(C)=C/C=C/C(C)=C/C(=O)O)cc21 [Compound 42, 7-(4-Ethyl-7-methoxy-2,2-dimethyl-2H-chromen-6-yl)-3-methyl-octa-2E,4E,6Z-trienoic acid]
378 nM	2 nM	89%	2500 nM	COc1cc2c(cc1\C(C)=C/C=C/C(C)=C/C(=O)O)C(C(C)C)=CC(C)(C)O2 [Compound 43, 7-(4-Isopropyl-7-methoxy-2,2-dimethyl-2H-chromen-6-yl)-3-methyl-octa-2E,4E,6Z-trienoic acid]
617 nM	0.3 nM	89%	3500 nM	CC/C(=C/C=C/C(C)=C/C(=O)O)c1cc2c(cc1OC)OC(C)(C)C=C2C(C)C [Compound 44, 7-(4-Isopropyl-7-methoxy-22-dimethyl-2H-chromen-6-yl)-3-methyl-nona-2E,4E,6Z-trienoic acid]
196 nM	78 nM	5%	2300 nM	CCOc1cc2c(cc1\C(C)=C/C=C/C(C)=C/C(=O)O)C(CC)=CC(C)(C)O2 [Compound 45, 7-(7-Ethoxy-4-ethyl-2,2-dimethyl-2H-chromen-6-yl)-3-methyl-octa-2E,4E,6Z-trienoic acid]
614 nM	> 1000 nM		3400 nM	CCOc1cc2c(cc1\C(=C/C=C/C(C)=C/C(=O)O)CC)C(C)=CC(C)(C)O2 [Compound 46, 7-(7-Ethoxy-2,2,4-trimethyl-2H-chromen-6-yl)-3-methyl-nona-2E,4E,6Z-trienoic acid]
4100 nM	0.1 nM	93%	> 10000 nM	COc1c(\C(C)=C/C=C/C(C)=C/C(=O)O)cc2c(c1Cl)OC(C)(C)C=C2C(C)C [Compound 49, 7-(8-Chloro-4-isopropyl-7-methoxy-2,2-dimethyl-2H-chromen-6-y)-3-methyl-octa-2E,4E,6Z-trienoic acid]
1300 nM	2 nM	56%	5900 nM	CCOc1c(\C(C)=C/C=C/C(C)=C/C(=O)O)cc2c(c1Cl)OC(C)(C)C=C2C(C)C [Compound 50, 7-(8-Chloro-4-isopropyl-7-ethoxy-2,2-dimethyl-2H-chromen-6-yl)-3-methyl-octa-2E,4E,6Z-trienoic acid]
1400 nM	9 nM	25%	4900 nM	CCOc1c(\C(=C/C=C/C(C)=C/C(=O)O)CC)cc2c(c1Cl)OC(C)(C)C=C2C(C)C [Compound 51]
8100 nM	> 10000 nM		> 10000 nM	CCC1=CC(C)(C)Oc2cc(OC)c(\C(C)=C(F)/C=C/C(C)=C/C(=O)O)cc21 [Compound 120, 7-(4Ethyl-7-methoxy-2,2-dimethyl-2H-chromen-6-yl)-6-fluoro-3-methyl-octa-2E,4E,6E-trienoic acid]
2100 nM	5 nM	59%	8800 nM	COc1cc2c(cc1\C(C)=C(F)/C=C/C(C)=C/C(=O)O)C(C(C)C)=CC(C)(C)O2 [Compound 121, (2E,4E,6E)-6-Fluoro-7-(4-isopropyl-7-methoxy-2,2-dimethyl-2H-chromen-6-yl)-3-methyl-octa-2,4,6-trienoic acid]
1400 nM	5 nM	36%	3900 nM	COc1cc2c(cc1\C(C)=C(F)/C=C/C(C)=C/C(=O)O)C(C(C)(C)C)=CC(C)(C)O2 [Compound 122, 7-(4-tert-Butyl-7-methoxy-2,2-dimethyl-2H-chromen-6-yl)-6-fluoro-3-methyl-octa-2E,4E,6E-trienoic acid]
1400 nM			2600 nM	CCOc1cc2c(cc1\C(C)=C(F)/C=C/C(C)=C/C(=O)O)C(c1ccccc1)=CC(C)(C)O2 [Compound 127, (2E,4E,6E)-7-(7-Ethoxy-2,2-dimethyl-4-phenyl-2H-chromen-6-yl)-6-fluoro-3-methyl-octa-2,4,6-trienoic acid]
388 nM			759 nM	CCCOc1cc2c(cc1\C(C)=C(F)/C=C/C(C)=C/C(=O)O)C(c1ccccc1)=CC(C)(C)O2 [Compound 128, (2E,4E,6E)-7-(2,2-Dimethyl-4-phenyl-7-propoxy-2H-chromen-6-yl)-6-fluoro-3-methyl-octa-2,4,6-trienoic acid]
371 nM	41 nM	69%		CCOc1cc2c(cc1\C(CC)=C(F)/C=C/C(C)=C/C(=O)O)C=CCC2(C)C [Compound A-77]
	1 nM	62%	3500 nM	CCOc1cc2c(cc1\C(C)=C(F)/C=C/C(C)=C/C(=O)O)C(C(C)C)=CCC2(C)C [Compound A-79, (2E,4E,6E)-6-Fluoro-3-(4,4-dimethylethoxy-1-isopropyl-3,4-dihydronaphthalen-7-yl)-3-methyl-2.4,6-octa-trienoic acid]
552 nM			6400 nM	CCCOc1cc2c(cc1\C(C)=C(F)/C=C/C(C)=C/C(=O)O)C(C(C)C)=CCC2(C)C [Compound A-80]
927 nM			5600 nM	CC(/C=C/C(F)=C(/C)c1cc2c(cc1OCC1CC1)C(C)(C)CC=C2C(C)C)=C\C(=O)O [Compound A-81, (2E,4E,6E)-6-Fluoro-3-(4-dimethyl-6-(cyclopropyl)methoxy-1-isopropyl-3,4-dihydronaphthalen-7-yl)-3-methyl-2,4.6-octa-trienoic acid]
620 nM			274 nM	CCCOc1cc2c(cc1\C(C)=C(F)/C=C/C(C)=C/C(=O)O)C(C(C)(C)C)=CCC2(C)C [Compound A-84, (2E,4E,6E)-6-Fluoro-3-(4,$dimethyl-6-n-propoxy-1-tert-butyl-3,4-dihydronaphthalen-7-yl)-3-methyl-2,4,6-octatrienoic acid]
